Values belong to the compound of their own block, whether it stands above or below them.
What was measured:
Sprague–Dawley rats = experiment: PET/CT imaging and biodistribution in LPS-treated and control rats; assay type: in vivo, rat
Description: Male Sprague–Dawley rats of 240–270 g were bought from Charles River Laboratories International, Inc., and used within 90 days. The animals were housed with a week of acclimatisation before procedures were done under pathogen-free conditions in a temperature- and humidity-controlled environment and given access to food and water ad libitum. All experiments were carried out in the Rayne Institute, St. Thomas’ Hospital, King’s College London, between 2015 and 2016 and according to the Animals Act 1986 and with the approval of the King’s College research ethics committee.
Twenty-four hours prior to scanning, all rats were pre-treated by an intraperitoneal injection of 0.5 mg/kg LPS from Escherichia coli (0111:B4 L2630, Sigma Aldrich) at 0.5 mg/mL or with 1 mL/kg sterile saline solution and weighed before the start of the PET imaging procedure. Then, the saline-dissolved reformulated radiotracer was injected under isoflurane anaesthesia in 0.2–5 MBq, corresponding to an administered dose of 0.5–16 ng/kg, and >300 GBq/μmol molar radioactivity via tail vein cannulation, followed by a 0.15 mL saline flush. Details on anaesthesia and PET/CT acquisition and analysis are reported in Additional file 1. Immediately after imaging, the animals were culled by terminal anaesthesia and cervical dislocation and dissected. Organs and body fluids were collected for gamma counting (LKB Wallac 1282) and biodistribution analysis.
Data are expressed as mean ± standard error mean (SEM) from three independent replicates, unless otherwise indicated. Statistical analysis of the %ID/g variation in the PET scans and biodistributions were performed with GraphPad Prism 5.0 (San Diego, USA) as a parametric two-way ANOVA test with Bonferroni post-test, while the mean longitudinal percentage injected dose per gram (%ID/g) and the post-LPS treatment weight variation were analysed with a Student’s t test. The asterisk indicates P < 0.01; **P < 0.005; ***P < 0.001. Where unspecified, no significance was found.
PET/CT scans were acquired with Nuclide^TM within the energy window of 400-600 keV, coincidence detection ratio 1-5 and voxel resolution of 0.30 x 0.30 x 0.30 mm^3. CT scanning was performed immediately before or after the PET scans with X-ray energy of 45 KVp, 360 projection and 0.25 x 0.25 x 0.21 mm^3 voxel size. The datasets were resolved by dynamic fine reconstructions with coincidence detection ratio 1-5 and decay correction to the time of injection. Binning was performed in incremental time units of 5 to 30 min size. All reconstructed datasets were analysed with VivoQuant 1.21 (InviCRO, LLC, Boston, USA). ROI activity quantification was corrected for background noise. Uptake was expressed as percent injected dose per gram of tissue (%ID/g), as calculated with reference to the injected activity dose at the time of injection and the ROI size in mm^3. The blood ROI was sampled from the coronary artery. All data are presented as mean ± SEM unless otherwise stated.
Immediately after imaging, the animals were culled by terminal anaesthesia and cervical dislocation. The animals were dissected and organs and body fluids were collected for gamma counting (LKB Wallac 1282) and weighed. An ^18F counts-to-becquerel standard curve was made so as to enable conversion between the two units. The radiotracer uptake in each organ was expressed as %ID/g, where %ID was the percent ratio of the measured organ radioactivity to the total administered dose. The latter was defined as the MBq injected to the animals, decay corrected to the start of counting.

[1] = Stability test in 0.05% DMSO by radio/UV-HPLC; assay type: physicochemical; conditions: 37 °C, 2 h
Description: The reaction vessel was heated at 160 °C for 15 min, cooled to 50 °C and the solvent was concentrated at 50 °C under a stream of nitrogen for 7–10 min. Next, the crude mixture was diluted in 2 mL water ensuring <15% acetonitrile was present and injected in an HPLC semi-prep C18 column to provide isolation of the pure product in >99% RCP and >300 GBq/μmol molar radioactivity. The product was diluted to 30–50 mL in water and passed through a light C18 Short Sep-Pak SPE cartridge (WAT023501) for concentration in 200–500 μL ethanol. The resulting product was obtained in high purity and 4.0% overall RCY in 3 h and 30 min from start of synthesis. Purity tests were performed with HPLC method B (Table 1).
Supp. […] UV_A: UV chromatogram; ChA: Channel A (Radiochromatogram); Cps: counts per second.

human P2X7 [2] = biological target: T1, human P2X7 (Homo sapiens, UniProt Q99572); experiment: Calcium influx (Fura-2/AM) inhibition assay, BzATP-activated; assay type: cell-based; conditions: Human isoform
T1 construct: expressed in transfected cells
T1 sequence (Q99572 1-595): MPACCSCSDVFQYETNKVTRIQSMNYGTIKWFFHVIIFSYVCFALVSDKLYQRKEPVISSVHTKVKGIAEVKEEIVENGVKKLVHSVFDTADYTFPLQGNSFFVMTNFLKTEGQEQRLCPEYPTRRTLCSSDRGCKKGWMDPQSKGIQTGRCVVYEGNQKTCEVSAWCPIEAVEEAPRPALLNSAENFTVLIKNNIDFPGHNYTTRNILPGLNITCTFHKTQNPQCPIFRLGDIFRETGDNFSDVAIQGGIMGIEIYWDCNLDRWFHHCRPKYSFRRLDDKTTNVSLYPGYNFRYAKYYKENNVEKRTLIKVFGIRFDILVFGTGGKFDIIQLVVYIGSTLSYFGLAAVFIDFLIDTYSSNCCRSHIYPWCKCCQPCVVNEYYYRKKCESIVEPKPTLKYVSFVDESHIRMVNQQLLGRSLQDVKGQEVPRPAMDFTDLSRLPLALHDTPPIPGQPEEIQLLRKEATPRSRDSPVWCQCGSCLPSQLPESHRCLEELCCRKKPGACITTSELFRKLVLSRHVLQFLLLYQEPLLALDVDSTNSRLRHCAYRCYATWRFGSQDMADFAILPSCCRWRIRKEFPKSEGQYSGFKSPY

mouse P2X7 [3] = biological target: T2, mouse P2X7 (Mus musculus, UniProt Q9Z1M0); experiment: Calcium influx (Fura-2/AM) inhibition assay, BzATP-activated, B16 cells; assay type: cell-based; conditions: Mouse isoform; for pKi: Cheng–Prusoff; for Ki: Cheng–Prusoff from pIC50 assuming competitive inhibition, BzATP 200 μM; for pIC50: P2X7-B16, [BzATP] 200 μM
T2 sequence (Q9Z1M0 1-595): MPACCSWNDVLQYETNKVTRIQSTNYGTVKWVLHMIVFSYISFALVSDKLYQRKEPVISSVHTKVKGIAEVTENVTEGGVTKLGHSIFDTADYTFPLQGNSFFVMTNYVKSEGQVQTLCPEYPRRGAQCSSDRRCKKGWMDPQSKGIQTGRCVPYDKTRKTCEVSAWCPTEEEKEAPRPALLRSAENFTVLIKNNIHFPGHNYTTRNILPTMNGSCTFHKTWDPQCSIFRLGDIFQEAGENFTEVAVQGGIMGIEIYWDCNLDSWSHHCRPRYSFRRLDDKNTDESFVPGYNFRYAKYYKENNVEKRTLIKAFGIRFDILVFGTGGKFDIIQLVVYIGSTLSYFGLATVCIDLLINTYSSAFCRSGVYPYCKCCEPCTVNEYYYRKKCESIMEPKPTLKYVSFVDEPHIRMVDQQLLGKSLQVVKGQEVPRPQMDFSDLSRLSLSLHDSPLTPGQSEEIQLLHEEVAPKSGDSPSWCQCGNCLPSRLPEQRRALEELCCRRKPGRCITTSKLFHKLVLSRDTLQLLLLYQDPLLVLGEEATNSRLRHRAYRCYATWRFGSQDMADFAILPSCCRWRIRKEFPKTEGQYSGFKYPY

mouse P2X7 [4] = biological target: T2, mouse P2X7; set-up: method as in PMID 19558545; conditions: Mouse isoform, literature value from similar assay format; cited from earlier work
human P2X7 [5] = biological target: T1, human P2X7; set-up: method as in PMID 11181928; conditions: YoPro dye uptake, P2X7-HEK293; cited from earlier work
rat P2X7 [6] = biological target: T3, rat P2X7 (Rattus norvegicus, UniProt Q64663); set-up: method as in PMID 11181928; conditions: YoPro dye uptake, P2X7-HEK293; cited from earlier work
T3 construct: expressed in transfected cells
T3 sequence (Q64663 1-595): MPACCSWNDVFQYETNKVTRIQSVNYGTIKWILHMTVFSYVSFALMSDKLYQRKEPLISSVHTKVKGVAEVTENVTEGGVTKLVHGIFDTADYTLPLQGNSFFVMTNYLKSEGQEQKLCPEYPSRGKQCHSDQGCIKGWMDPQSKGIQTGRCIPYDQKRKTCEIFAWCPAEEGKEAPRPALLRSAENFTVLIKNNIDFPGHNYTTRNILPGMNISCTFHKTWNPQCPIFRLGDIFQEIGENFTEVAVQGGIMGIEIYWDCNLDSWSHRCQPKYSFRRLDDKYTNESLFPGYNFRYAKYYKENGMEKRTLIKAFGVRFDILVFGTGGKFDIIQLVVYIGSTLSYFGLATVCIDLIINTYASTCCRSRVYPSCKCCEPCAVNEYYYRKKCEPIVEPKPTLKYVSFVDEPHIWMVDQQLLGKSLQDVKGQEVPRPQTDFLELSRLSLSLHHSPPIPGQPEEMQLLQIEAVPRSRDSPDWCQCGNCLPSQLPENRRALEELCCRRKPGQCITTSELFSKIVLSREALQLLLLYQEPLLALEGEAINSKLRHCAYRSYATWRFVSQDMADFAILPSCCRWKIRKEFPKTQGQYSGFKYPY

mouse P2X7 [7] = biological target: T2, mouse P2X7; set-up: method as in PMID 11181928; conditions: YoPro dye uptake, P2X7-HEK293; cited from earlier work
rat P2X7 [8] = biological target: T3, rat P2X7; experiment: Calcium influx (Fura-2/AM) inhibition assay, BzATP-activated; assay type: cell-based; conditions: Rat isoform

blood concentration of the tracer, LPS vs control (Sprague–Dawley rats; 90 min biodistribution): substantially unvaried
tracer uptake in upper digestive organs (stomach, pancreas), LPS vs control (Sprague–Dawley rats; 90 min biodistribution): increased, albeit non-significant
CNS uptake, spinal cord (Sprague–Dawley rats; PET, rats, i.v.): 0.05–0.1 %ID/g
CNS uptake, whole brain, cortex, olfactory bulb, cerebellum and basal ganglia (Sprague–Dawley rats; PET, rats, i.v.): 0.02–0.07 %ID/g
blood concentration (longitudinal uptake profile) (Sprague–Dawley rats; PET, rats, i.v., blood ROI): 0.05–0.1 %ID/g
brain uptake (visual PET image assessment) (Sprague–Dawley rats; control and 0.5 mg/kg LPS-pre-treated rats): low brain uptake
removal of the radioactivity (excretion route) (Sprague–Dawley rats; rats): predominantly via the urinary route
Stability [1]: no radioactive by-product formation
Compound: N#C/N=C(/NCc1ccc([18F])cc1)Nc1cccc2ncccc12 [[^18F]EFB, 2-cyano-1-(4-[^18F]fluorobenzyl)-3-(quinolin-5-yl)guanidine]

Ki (human P2X7 [2]; Cheng–Prusoff): 0.105 nM
IC50 (human P2X7 [2]; P2X7-HEK293, [BzATP] 100 μM): 66.1 nM
pKi (mouse P2X7 [3]): 7.01
Ki (mouse P2X7 [3]): 97.2 nM
pIC50 (mouse P2X7 [3]): 5.97
Compound: COc1ccc(CC(=O)NC(NC(=NC#N)Nc2cccc3ncccc23)C(C)(C)C)cc1OC (stereo not shown) [A-740003, N-(1-{[(Cyanoimino)(5-quinolinylamino)methyl]amino}-2,2-dimethylpropyl)-2-(3,4-dimethoxyphenyl)acetamide, reference compound]
Lit. pIC50 (mouse P2X7 [4]): 6.57 [34]

Compound: 2′(3′)-O-(4-Benzoylbenzoyl)adenosine 5′-triphosphate triethylammonium salt [BzATP]
pEC50 (human P2X7 [5]): 6.8 ± 0.14
pEC50 (rat P2X7 [6]): 6.3 ± 0.13
pEC50 (mouse P2X7 [7]): 4.7 ± 0.07

pKi (mouse P2X7 [3]): 6.26
Ki (mouse P2X7 [3]): 547 nM
pIC50 (mouse P2X7 [3]): 5.22
Ki (rat P2X7 [8]; Cheng–Prusoff from pIC50 assuming competitive inhibition, BzATP 100 μM): 36.1 nM
IC50 (rat P2X7 [8]; P2X7-HEK293, [BzATP] 100 μM): 7240 nM
Compound: N#CN=C(NCc1ccc(F)cc1)Nc1cccc2ncccc12 [EFB, 2-cyano-1-(4-fluorobenzyl)-3-(quinolin-5-yl)guanidine]

Reference: PMC5378566, “Design, synthesis and evaluation in an LPS rodent model of neuroinflammation of a novel ^18F-labelled PET tracer targeting P2X7” (EJNMMI Research, 2017)
